# Legend:
# Assay type in all cases: in vivo
# [1] = test system: barnyardgrass (Echinochloa crus-galli); assay: Test A pre-/postemergence plant response
# Source text: (§1) Seeds of species selected from barnyardgrass (Echinochloa crus-galli), large crabgrass (Digitaria sanguinalis), giant foxtail (Setaria faberi), blackgrass (Alopecurus myosuroides), canarygrass (Phalaris minor), morningglory (Ipomoea coccinea), pigweed (Amaranthus retroflexus), velvetleaf (Abutilon theophrasti), wheat (Triticum aestivum), and corn (Zea mays) were planted into a blend of loam soil and sand and treated preemergence with a directed soil spray using test chemicals formulated in a non-phytotoxic solvent mixture which included a surfactant. At the same time these species were also treated with postemergence applications of test chemicals formulated in the same manner.
# (§2) Plants ranged in height from 2 to 10 cm and were in the one- to two-leaf stage for the postemergence treatment. Treated plants and untreated controls were maintained in a greenhouse for approximately 10 days, after which time all treated plants were compared to untreated controls and visually evaluated for injury. Plant response ratings, summarized in Table A, are based on a 0 to 100 scale where 0 is no effect and 100 is complete control. A dash (-) response means no test results.
# corn (Zea mays) = assay: Test A pre-/postemergence plant response
# Source text: as §1, §2
# [2] = test system: giant foxtail (Setaria faberi); assay: Test A pre-/postemergence plant response
# Source text: as §1, §2
# [3] = test system: large crabgrass (Digitaria sanguinalis); assay: Test A pre-/postemergence plant response
# Source text: as §1, §2
# [4] = test system: morningglory (Ipomoea coccinea); assay: Test A pre-/postemergence plant response
# Source text: as §1, §2
# [5] = test system: pigweed (Amaranthus retroflexus); assay: Test A pre-/postemergence plant response
# Source text: as §1, §2
# [6] = test system: velvetleaf (Abutilon theophrasti); assay: Test A pre-/postemergence plant response
# Source text: as §1, §2
# [7] = test system: wheat (Triticum aestivum); assay: Test A pre-/postemergence plant response
# Source text: as §1, §2
# [8] = test system: barnyardgrass (Echinochloa crus-galli); assay: Test B flooded paddy test plant response
# Source text: (§3) Plant species in the flooded paddy test consisted of rice (Oryza sativa), umbrella sedge (Cyperus difformis), ducksalad (Heteranthera limosa) and barnyardgrass (Echinochloa crus-galli) grown to the 2-leaf stage for testing. At time of treatment, test pots were flooded to 3 cm above the soil surface, treated by application of test compounds directly to the paddy water, and then maintained at that water depth for the duration of the test. Treated plants and controls were maintained in a greenhouse for 13 to 15 days, after which time all species were compared to controls and visually evaluated. Plant response ratings, summarized in Table B, are based on a scale of 0 to 100 where 0 is no effect and 100 is complete control. A dash (-) response means no test result.
# [9] = test system: ducksalad (Heteranthera limosa); assay: Test B flooded paddy test plant response
# Source text: as §3
# rice (Oryza sativa) = assay: Test B flooded paddy test plant response
# Source text: as §3
# [10] = test system: umbrella sedge (Cyperus difformis); assay: Test B flooded paddy test plant response
# Source text: as §3
# [11] = Postemergence, 125 g ai/ha, 0 to 100 scale, 0 no effect, 100 complete control
# [12] = Postemergence, 500 g ai/ha, 0 to 100 scale, 0 no effect, 100 complete control
# [13] = Preemergence, 125 g ai/ha, 0 to 100 scale (0 no effect, 100 complete control)
# [14] = Preemergence, 500 g ai/ha, 0 to 100 scale (0 no effect, 100 complete control)
# [15] = Flood (flooded paddy test), 62 g ai/ha, scale 0 to 100, 0 no effect, 100 complete control
# [16] = Flood (flooded paddy test), 125 g ai/ha, scale 0 to 100, 0 no effect, 100 complete control
# [17] = Flood (flooded paddy test), 250 g ai/ha, scale 0 to 100, 0 no effect, 100 complete control
# [18] = Flood, 31 g ai/ha, scale 0 to 100
smiles,measurement,setting,value
Cc1cc(-c2ccc(OC(F)(F)F)cc2)nn1-c1c(O)cnn(C)c1=O [Compound 14],"Plant response rating, Barnyardgrass",[1]; [11],70
same,"Plant response rating, Barnyardgrass",[1]; [12],100
same,"Plant response rating, Barnyardgrass",[1]; [13],70
same,"Plant response rating, Barnyardgrass",[1]; [14],100
same,"Plant response rating, Corn",corn (Zea mays); [11],40
same,"Plant response rating, Corn",corn (Zea mays); [12],80
same,"Plant response rating, Corn",corn (Zea mays); [13],0
same,"Plant response rating, Corn",corn (Zea mays); [14],60
same,"Plant response rating, Foxtail, Giant",[2]; [11],80
same,"Plant response rating, Foxtail, Giant",[2]; [12],100
same,"Plant response rating, Foxtail, Giant",[2]; [13],80
same,"Plant response rating, Foxtail, Giant",[2]; [14],100
same,"Plant response rating, Crabgrass, Large",[3]; [11],60
same,"Plant response rating, Crabgrass, Large",[3]; [12],90
same,"Plant response rating, Crabgrass, Large",[3]; [13],70
same,"Plant response rating, Crabgrass, Large",[3]; [14],90
same,"Plant response rating, Morningglory",[4]; [11],0
same,"Plant response rating, Morningglory",[4]; [12],0
same,"Plant response rating, Morningglory",[4]; [13],0
same,"Plant response rating, Morningglory",[4]; [14],0
same,"Plant response rating, Pigweed",[5]; [11],0
same,"Plant response rating, Pigweed",[5]; [12],0
same,"Plant response rating, Pigweed",[5]; [13],0
same,"Plant response rating, Pigweed",[5]; [14],0
same,"Plant response rating, Velvetleaf",[6]; [11],0
same,"Plant response rating, Velvetleaf",[6]; [12],30
same,"Plant response rating, Velvetleaf",[6]; [13],0
same,"Plant response rating, Velvetleaf",[6]; [14],20
same,"Plant response rating, Wheat",[7]; [11],40
same,"Plant response rating, Wheat",[7]; [12],70
same,"Plant response rating, Wheat",[7]; [13],10
same,"Plant response rating, Wheat",[7]; [14],80
same,"Plant response rating, Barnyardgrass",[8]; [15],0
same,"Plant response rating, Barnyardgrass",[8]; [16],20
same,"Plant response rating, Barnyardgrass",[8]; [17],20
same,"Plant response rating, Barnyardgrass",[8]; [18],0
same,"Plant response rating, Ducksalad",[9]; [15],0
same,"Plant response rating, Ducksalad",[9]; [16],40
same,"Plant response rating, Ducksalad",[9]; [17],40
same,"Plant response rating, Ducksalad",[9]; [18],0
same,"Plant response rating, Rice",rice (Oryza sativa); [15],0
same,"Plant response rating, Rice",rice (Oryza sativa); [16],0
same,"Plant response rating, Rice",rice (Oryza sativa); [17],20
same,"Plant response rating, Rice",rice (Oryza sativa); [18],0
same,"Plant response rating, Sedge, Umbrella",[10]; [15],60
same,"Plant response rating, Sedge, Umbrella",[10]; [17],60
same,"Plant response rating, Sedge, Umbrella",[10]; [18],0
Cc1nc(-c2ccc(Cl)cc2)nn1-c1c(O)cnn(C)c1=O [Compound 17],"Plant response rating, Barnyardgrass",[1]; [11],50
same,"Plant response rating, Barnyardgrass",[1]; [12],90
same,"Plant response rating, Barnyardgrass",[1]; [13],40
same,"Plant response rating, Barnyardgrass",[1]; [14],100
same,"Plant response rating, Corn",corn (Zea mays); [11],0
same,"Plant response rating, Corn",corn (Zea mays); [12],40
same,"Plant response rating, Corn",corn (Zea mays); [13],0
same,"Plant response rating, Corn",corn (Zea mays); [14],40
same,"Plant response rating, Foxtail, Giant",[2]; [11],80
same,"Plant response rating, Foxtail, Giant",[2]; [12],90
same,"Plant response rating, Foxtail, Giant",[2]; [13],40
same,"Plant response rating, Foxtail, Giant",[2]; [14],90
same,"Plant response rating, Crabgrass, Large",[3]; [11],40
same,"Plant response rating, Crabgrass, Large",[3]; [12],80
same,"Plant response rating, Crabgrass, Large",[3]; [13],0
same,"Plant response rating, Crabgrass, Large",[3]; [14],70
same,"Plant response rating, Morningglory",[4]; [11],0
same,"Plant response rating, Morningglory",[4]; [12],0
same,"Plant response rating, Morningglory",[4]; [13],0
same,"Plant response rating, Morningglory",[4]; [14],0
same,"Plant response rating, Pigweed",[5]; [11],0
same,"Plant response rating, Pigweed",[5]; [12],0
same,"Plant response rating, Pigweed",[5]; [13],0
same,"Plant response rating, Pigweed",[5]; [14],0
same,"Plant response rating, Velvetleaf",[6]; [11],0
same,"Plant response rating, Velvetleaf",[6]; [12],0
same,"Plant response rating, Velvetleaf",[6]; [13],0
same,"Plant response rating, Velvetleaf",[6]; [14],0
same,"Plant response rating, Wheat",[7]; [11],0
same,"Plant response rating, Wheat",[7]; [12],50
same,"Plant response rating, Wheat",[7]; [13],20
same,"Plant response rating, Wheat",[7]; [14],50
same,"Plant response rating, Barnyardgrass",[8]; [15],0
same,"Plant response rating, Barnyardgrass",[8]; [16],0
same,"Plant response rating, Barnyardgrass",[8]; [17],0
same,"Plant response rating, Barnyardgrass",[8]; [18],0
same,"Plant response rating, Ducksalad",[9]; [15],40
same,"Plant response rating, Ducksalad",[9]; [16],40
same,"Plant response rating, Ducksalad",[9]; [17],95
same,"Plant response rating, Ducksalad",[9]; [18],40
same,"Plant response rating, Rice",rice (Oryza sativa); [15],15
same,"Plant response rating, Rice",rice (Oryza sativa); [16],20
same,"Plant response rating, Rice",rice (Oryza sativa); [17],40
same,"Plant response rating, Rice",rice (Oryza sativa); [18],0
same,"Plant response rating, Sedge, Umbrella",[10]; [15],40
same,"Plant response rating, Sedge, Umbrella",[10]; [16],40
same,"Plant response rating, Sedge, Umbrella",[10]; [17],70
same,"Plant response rating, Sedge, Umbrella",[10]; [18],30
CCc1cc(-c2ccc(Cl)c(Cl)c2)nn1-c1c(OC(=O)OC(C)C)cnn(C)c1=O [Compound 22],"Plant response rating, Barnyardgrass",[1]; [11],50
same,"Plant response rating, Barnyardgrass",[1]; [12],90
same,"Plant response rating, Barnyardgrass",[1]; [13],30
same,"Plant response rating, Barnyardgrass",[1]; [14],100
same,"Plant response rating, Corn",corn (Zea mays); [11],20
same,"Plant response rating, Corn",corn (Zea mays); [12],90
same,"Plant response rating, Corn",corn (Zea mays); [13],30
same,"Plant response rating, Corn",corn (Zea mays); [14],70
same,"Plant response rating, Foxtail, Giant",[2]; [11],60
same,"Plant response rating, Foxtail, Giant",[2]; [12],80
same,"Plant response rating, Foxtail, Giant",[2]; [13],90
same,"Plant response rating, Foxtail, Giant",[2]; [14],100
same,"Plant response rating, Crabgrass, Large",[3]; [11],10
same,"Plant response rating, Crabgrass, Large",[3]; [12],80
same,"Plant response rating, Crabgrass, Large",[3]; [13],50
same,"Plant response rating, Crabgrass, Large",[3]; [14],90
same,"Plant response rating, Morningglory",[4]; [11],0
same,"Plant response rating, Morningglory",[4]; [12],0
same,"Plant response rating, Morningglory",[4]; [13],0
same,"Plant response rating, Morningglory",[4]; [14],0
same,"Plant response rating, Pigweed",[5]; [11],0
same,"Plant response rating, Pigweed",[5]; [12],0
same,"Plant response rating, Pigweed",[5]; [13],0
same,"Plant response rating, Pigweed",[5]; [14],0
same,"Plant response rating, Velvetleaf",[6]; [11],0
same,"Plant response rating, Velvetleaf",[6]; [12],0
same,"Plant response rating, Velvetleaf",[6]; [13],0
same,"Plant response rating, Velvetleaf",[6]; [14],0
same,"Plant response rating, Wheat",[7]; [11],20
same,"Plant response rating, Wheat",[7]; [12],60
same,"Plant response rating, Wheat",[7]; [13],40
same,"Plant response rating, Wheat",[7]; [14],70
same,"Plant response rating, Barnyardgrass",[8]; [15],0
same,"Plant response rating, Barnyardgrass",[8]; [16],0
same,"Plant response rating, Barnyardgrass",[8]; [17],0
same,"Plant response rating, Barnyardgrass",[8]; [18],0
same,"Plant response rating, Ducksalad",[9]; [15],0
same,"Plant response rating, Ducksalad",[9]; [16],0
same,"Plant response rating, Ducksalad",[9]; [17],0
same,"Plant response rating, Ducksalad",[9]; [18],0
same,"Plant response rating, Rice",rice (Oryza sativa); [15],0
same,"Plant response rating, Rice",rice (Oryza sativa); [16],0
same,"Plant response rating, Rice",rice (Oryza sativa); [17],0
same,"Plant response rating, Rice",rice (Oryza sativa); [18],0
same,"Plant response rating, Sedge, Umbrella",[10]; [15],0
same,"Plant response rating, Sedge, Umbrella",[10]; [16],0
same,"Plant response rating, Sedge, Umbrella",[10]; [17],0
same,"Plant response rating, Sedge, Umbrella",[10]; [18],0
CSc1cc(-c2ccc(F)cc2)nn1-c1c(O)cnn(C)c1=O [Compound 23],"Plant response rating, Barnyardgrass",[1]; [11],0
same,"Plant response rating, Barnyardgrass",[1]; [12],70
same,"Plant response rating, Barnyardgrass",[1]; [13],0
same,"Plant response rating, Barnyardgrass",[1]; [14],10
same,"Plant response rating, Corn",corn (Zea mays); [11],0
same,"Plant response rating, Corn",corn (Zea mays); [12],20
same,"Plant response rating, Corn",corn (Zea mays); [13],0
same,"Plant response rating, Corn",corn (Zea mays); [14],20
same,"Plant response rating, Foxtail, Giant",[2]; [11],20
same,"Plant response rating, Foxtail, Giant",[2]; [12],80
same,"Plant response rating, Foxtail, Giant",[2]; [13],20
same,"Plant response rating, Foxtail, Giant",[2]; [14],70
same,"Plant response rating, Crabgrass, Large",[3]; [11],0
same,"Plant response rating, Crabgrass, Large",[3]; [12],20
same,"Plant response rating, Crabgrass, Large",[3]; [13],0
same,"Plant response rating, Crabgrass, Large",[3]; [14],0
same,"Plant response rating, Morningglory",[4]; [11],0
same,"Plant response rating, Morningglory",[4]; [12],0
same,"Plant response rating, Morningglory",[4]; [13],0
same,"Plant response rating, Morningglory",[4]; [14],0
same,"Plant response rating, Pigweed",[5]; [11],0
same,"Plant response rating, Pigweed",[5]; [12],0
same,"Plant response rating, Pigweed",[5]; [13],0
same,"Plant response rating, Pigweed",[5]; [14],0
same,"Plant response rating, Velvetleaf",[6]; [11],0
same,"Plant response rating, Velvetleaf",[6]; [12],0
same,"Plant response rating, Velvetleaf",[6]; [13],0
same,"Plant response rating, Velvetleaf",[6]; [14],0
same,"Plant response rating, Wheat",[7]; [11],0
same,"Plant response rating, Wheat",[7]; [12],0
same,"Plant response rating, Wheat",[7]; [13],0
same,"Plant response rating, Wheat",[7]; [14],0
